Assay results as given in PubChem BioAssay AID2060614 (Molecular Pharmacology Branch, DTP, NCI, 2025).

Tested on: 598228-144-R-J1-PDC complex spheroids, viability
Assay: Anticancer human tumor 598228-144-R-J1-PDC patient-derived serous endometrial adenocarcinoma cell line growth inhibition [CLK]
Conditions: for IC50: curve of first compound; for viability, T/C: stronger effect = lower value
In short: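 Multi-cell-type spheroids combined patient-derived tumor cells with HUVEC endothelial cells and human mesenchymal stem cells. Paired agents were dosed in half-log steps down from about clinical Cmax, or from 10 microM where Cmax was unknown.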

[1] = second compound 0.0316 µM, first compound 0.0316 µM
[2] = second compound 0.0316 µM, first compound 0.1 µM
[3] = second compound 0.0316 µM, first compound 0.316 µM
[4] = second compound 0.0316 µM, first compound 1 µM
[5] = second compound 0.0316 µM, first compound 3.16 µM
[6] = second compound 0.0316 µM, first compound 10 µM
[7] = second compound 0.1 µM, first compound 0.0316 µM
[8] = second compound 0.1 µM, first compound 0.1 µM
[9] = second compound 0.1 µM, first compound 0.316 µM
[10] = second compound 0.1 µM, first compound 1 µM
[11] = second compound 0.1 µM, first compound 3.16 µM
[12] = second compound 0.1 µM, first compound 10 µM
[13] = second compound 0.316 µM, first compound 0.0316 µM
[14] = second compound 0.316 µM, first compound 0.1 µM
[15] = second compound 0.316 µM, first compound 0.316 µM
[16] = second compound 0.316 µM, first compound 1 µM
[17] = second compound 0.316 µM, first compound 3.16 µM
[18] = second compound 0.316 µM, first compound 10 µM
[19] = second compound 1 µM, first compound 0.0316 µM
[20] = second compound 1 µM, first compound 0.1 µM
[21] = second compound 1 µM, first compound 0.316 µM
[22] = second compound 1 µM, first compound 1 µM
[23] = second compound 1 µM, first compound 3.16 µM
[24] = second compound 1 µM, first compound 10 µM
[25] = second compound 3.16 µM, first compound 0.0316 µM
[26] = second compound 3.16 µM, first compound 0.1 µM
[27] = second compound 3.16 µM, first compound 0.316 µM
[28] = second compound 3.16 µM, first compound 1 µM
[29] = second compound 3.16 µM, first compound 3.16 µM
[30] = second compound 3.16 µM, first compound 10 µM
[31] = second compound 10 µM, first compound 0.0316 µM
[32] = second compound 10 µM, first compound 0.1 µM
[33] = second compound 10 µM, first compound 0.316 µM
[34] = second compound 10 µM, first compound 1 µM
[35] = second compound 10 µM, first compound 3.16 µM
[36] = second compound 10 µM, first compound 10 µM
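Note: spheroids exposed to compounds for seven days before readout.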
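Throughout, for viability, T/C: 100% = DMSO vehicle control wells.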

C=CC(=O)N1CCN(c2nc(=O)n(-c3c(C)ccnc3C(C)C)c3nc(-c4c(O)cccc4F)c(F)cc23)C(C)C1 (stereo unspecified) + CNC(=O)c1ccc(Nc2nc(OC3CCCC3)c3c(-c4ccc5nc(C)oc5c4)c[nH]c3n2)c(OC)c1
IC50 (second compound 0.0316 µM): > 10 µM
IC50 (second compound 0.1 µM): > 10 µM
IC50 (second compound 0.316 µM): > 10 µM
IC50 (second compound 1 µM): > 10 µM
IC50 (second compound 3.16 µM): > 10 µM
IC50 (second compound 10 µM): > 10 µM
viability, T/C [1]: 97.9%
viability, T/C [2]: 110%
viability, T/C [3]: 101%
viability, T/C [4]: 123%
viability, T/C [5]: 135%
viability, T/C [6]: 111%
viability, T/C [7]: 100%
viability, T/C [8]: 111%
viability, T/C [9]: 117%
viability, T/C [10]: 114%
viability, T/C [11]: 127%
viability, T/C [12]: 118%
viability, T/C [13]: 120%
viability, T/C [14]: 100%
viability, T/C [15]: 110%
viability, T/C [16]: 127%
viability, T/C [17]: 120%
viability, T/C [18]: 111%
viability, T/C [19]: 102%
viability, T/C [20]: 96.7%
viability, T/C [21]: 109%
viability, T/C [22]: 137%
viability, T/C [23]: 117%
viability, T/C [24]: 99.3%
viability, T/C [25]: 99.8%
viability, T/C [26]: 86.1%
viability, T/C [27]: 97.5%
viability, T/C [28]: 109%
viability, T/C [29]: 116%
viability, T/C [30]: 85.3%
viability, T/C [31]: 87.6%
viability, T/C [32]: 88.7%
viability, T/C [33]: 96.4%
viability, T/C [34]: 104%
viability, T/C [35]: 101%
viability, T/C [36]: 77.3%

CC(CO)NC(=O)c1cc(-c2ccc(Cl)cc2)nn(-c2cnn(C)c2)c1=O (stereo unspecified) + CNC(=O)c1ccc(Nc2nc(OC3CCCC3)c3c(-c4ccc5nc(C)oc5c4)c[nH]c3n2)c(OC)c1
IC50 (second compound 0.0316 µM): > 10 µM
IC50 (second compound 0.1 µM): > 10 µM
IC50 (second compound 0.316 µM): > 10 µM
IC50 (second compound 1 µM): > 10 µM
IC50 (second compound 3.16 µM): > 10 µM
IC50 (second compound 10 µM): > 10 µM
viability, T/C [1]: 124%
viability, T/C [2]: 102%
viability, T/C [3]: 102%
viability, T/C [4]: 104%
viability, T/C [5]: 92.8%
viability, T/C [6]: 94.4%
viability, T/C [7]: 94.9%
viability, T/C [8]: 107%
viability, T/C [9]: 96.5%
viability, T/C [10]: 103%
viability, T/C [11]: 106%
viability, T/C [12]: 83.8%
viability, T/C [13]: 111%
viability, T/C [14]: 104%
viability, T/C [15]: 92.8%
viability, T/C [16]: 96.5%
viability, T/C [17]: 106%
viability, T/C [18]: 96.8%
viability, T/C [19]: 111%
viability, T/C [20]: 104%
viability, T/C [21]: 112%
viability, T/C [22]: 105%
viability, T/C [23]: 111%
viability, T/C [24]: 87.6%
viability, T/C [25]: 85.7%
viability, T/C [26]: 94.7%
viability, T/C [27]: 92.2%
viability, T/C [28]: 102%
viability, T/C [29]: 94.8%
viability, T/C [30]: 81.4%
viability, T/C [31]: 90.4%
viability, T/C [32]: 77%
viability, T/C [33]: 95.8%
viability, T/C [34]: 77.5%
viability, T/C [35]: 112%
viability, T/C [36]: 83.1%

COc1c(OCCCN2CCOCC2)ccc2c3n(c(=NC(=O)c4cnc(N)nc4)nc12)CCN3 + CNC(=O)c1ccc(Nc2nc(OC3CCCC3)c3c(-c4ccc5nc(C)oc5c4)c[nH]c3n2)c(OC)c1
IC50 (second compound 0.0316 µM): 0.0261 µM
IC50 (second compound 0.1 µM): 0.0302 µM
IC50 (second compound 0.316 µM): 0.0184 µM
IC50 (second compound 1 µM): 0.0152 µM
IC50 (second compound 3.16 µM): 0.0106 µM
IC50 (second compound 10 µM): 0.00994 µM
viability, T/C (second compound 0.0316 µM, first compound 0.00316 µM): 85.7%
viability, T/C (second compound 0.0316 µM, first compound 0.01 µM): 65.5%
viability, T/C [1]: 49%
viability, T/C [2]: 26.5%
viability, T/C [3]: 15.7%
viability, T/C [4]: 9.14%
viability, T/C (second compound 0.1 µM, first compound 0.00316 µM): 104%
viability, T/C (second compound 0.1 µM, first compound 0.01 µM): 74.2%
viability, T/C [7]: 51.4%
viability, T/C [8]: 25.8%
viability, T/C [9]: 13.6%
viability, T/C [10]: 5.09%
viability, T/C (second compound 0.316 µM, first compound 0.00316 µM): 97.8%
viability, T/C (second compound 0.316 µM, first compound 0.01 µM): 65.4%
viability, T/C [13]: 35.7%
viability, T/C [14]: 19.6%
viability, T/C [15]: 11.3%
viability, T/C [16]: 5.13%
viability, T/C (second compound 1 µM, first compound 0.00316 µM): 86.8%
viability, T/C (second compound 1 µM, first compound 0.01 µM): 61.4%
viability, T/C [19]: 29.9%
viability, T/C [20]: 16.6%
viability, T/C [21]: 8.67%
viability, T/C [22]: 5.42%
viability, T/C (second compound 3.16 µM, first compound 0.00316 µM): 73.5%
viability, T/C (second compound 3.16 µM, first compound 0.01 µM): 51.5%
viability, T/C [25]: 28.4%
viability, T/C [26]: 13.9%
viability, T/C [27]: 7.8%
viability, T/C [28]: 3.58%
viability, T/C (second compound 10 µM, first compound 0.00316 µM): 71.2%
viability, T/C (second compound 10 µM, first compound 0.01 µM): 50.3%
viability, T/C [31]: 24.8%
viability, T/C [32]: 12.9%
viability, T/C [33]: 6.23%
viability, T/C [34]: 5.18%
